We go through one substance from PMC10891031 (2024).

This data set in a line: plasma from a Sprague Dawley rat. The settings on record: 37 °C, up to 15 min.

Turning to H-ACGLSGLGVA-NH2, the fragment found result was “[^18F]FNA, 5 min”.
